Laboratory results from US20200079819A1, “Use of a Vaccine Targeting a Cryptic Tert Epitope, for Treating Lung Cancer in a HLA-A*0201-Positive Never-Smoker or Light-Former Smoker Patient” (Vaxon Biotech, priority 2017, published 2020).
No end group written: not given here.

System: HLA-A*0201 positive patients with NSCLC expressing TERT
Test: Vx-001-201 randomized double blind phase IIb clinical trial (OS, TTF, 12 months survival)
Format: in vivo, human
Conditions: for OS (months) / 12 months OS / 12 months OS (%) / Median TTF (months) / Median survival (months): Vx-001 arm; for HR (OS) / HR (TTF): Vx-001 vs placebo
From the text: The Vx-001-201 study is a randomized, double blind multicenter study done in 70 centers in France, Germany, Spain, Italy, Greece, Poland, Romania and Czech Republic. Key eligibility criteria were a) non small cell lung cancer (NSCLC), b) stage IV or recurrent stage I-III, c) disease control after platinum based first line chemotherapy according to RECIST 1.1 criteria, d) HLA-A*0201 positivity, e) tumors expressing TElomerase Reverse Transcriptase (TERT), f) ECOG 0 or 1 g) absence of brain metastasis.
a) Principal endpoint: overall survival (OS) measured from randomization
b) Secondary endpoints: • Time to Treatment Failure (TTF) measured from randomization • OS at 12 months
Patients who fulfilled all inclusion criteria were randomized within 4 weeks after the end of first line chemotherapy.
The vaccination protocol consisted in six vaccinations at three weeks interval. The optimized Vx-001/TERT572Y was used in the first two vaccinations and the native Vx-001/TERT572 in the following four vaccinations. Patients who continued controlling their disease after the sixth vaccination received boost vaccination with the Vx-001/TERT572 every three months. Vaccination was stopped at disease progression (FIG. 1).
The primary and secondary endpoints were analysed in the Full Analysis Set composed of all patients who fulfilled the […] five main criteria a) NSCLC, b) stage IV or recurrent stage I-III, and c) disease control after first line chemotherapy, d) HLA-A*0201 positivity and e) TERT expressing tumors.
We used the Kaplan-Meier method to estimate OS and TTF in each arm and a Cox proportional hazards regression model to estimate Hazard Ratio (HR) relating OS and TTF to the treatment effect.

[1] = never-smokers and light-smokers (≤25 years, stopped or not), SQ (n = 14)
[2] = never-smokers and light-smokers (≤25 years, stopped or not), Stage IV (n = 51)
[3] = never-smokers and light-smokers (≤25 years, stopped or not), natural immunity No (n = 37)
[4] = never-smokers and light-smokers (≤25 years, stopped or not), natural immunity Yes (n = 15)
[5] = never-smokers and light-smokers (≤25 years, stopped or not), response to treatment OS (n = 28)
[6] = never-smokers and light-smokers (≤25 years, stopped or not), response to treatment SD (n = 32)
[7] = never-smokers or former light-smokers (≤25 years), <65 years (n = 24)
[8] = never-smokers or former light-smokers (≤25 years), >65 years (n = 31)
[9] = never-smokers or former light-smokers (≤25 years), CARBO (n = 37)
[10] = never-smokers or former light-smokers (≤25 years), CDDP (n = 18)
[11] = never-smokers or former light-smokers (≤25 years), Female (n = 23)
[12] = never-smokers or former light-smokers (≤25 years), MH + NSQ (n = 42)
[13] = never-smokers or former light-smokers (≤25 years), Male (n = 32)
[14] = never-smokers or former light-smokers (≤25 years), SQ (n = 13)
[15] = never-smokers or former light-smokers (≤25 years), natural immunity No (n = 33)
[16] = never-smokers or former light-smokers (≤25 years), natural immunity Yes (n = 14)
[17] = never-smokers or former light-smokers (≤25 years), response to chemotherapy OR (n = 26)
[18] = never-smokers or former light-smokers (≤25 years), response to chemotherapy SD (n = 29)
[19] = never-smokers or former light-smokers (≤25 years), stable disease SD after first-line chemotherapy (n = 29)

Vx-001: vaccine composed of two nine-amino-acid peptides, TERT572 (SEQ ID No: 1) and TERT572Y (SEQ ID No: 2), administered separately with adjuvant Montanide ISA51 VG (chain 1 RLFFYRKSV; chain 2 YLFFYRKSV; not fully specified)
OS (months) [1]: 14.1 months
HR (OS) [1]: 0.81
12 months OS [2]: 69.2%
OS (months) [2]: 16.2 months
HR (OS) [2]: 0.44
12 months OS [3]: 83.0%
OS (months) [3]: 20.7 months
HR (OS) [3]: 0.27
12 months OS [4]: 66.0%
OS (months) [4]: 15.3 months
HR (OS) [4]: 0.87
12 months OS [5]: 63.6%
OS (months) [5]: 15.3 months
HR (OS) [5]: 0.91
12 months OS [6]: 75.0%
OS (months) [6]: 24.7 months
HR (OS) [6]: 0.34
12 months OS (%) [7]: 77%
Median TTF (months) [7]: 2.9 months
Median survival (months) [7]: 20.2 months
HR (OS) [7]: 0.46
HR (TTF) [7]: 1.07
12 months OS (%) [8]: 69.2%
Median TTF (months) [8]: 4.6 months
Median survival (months) [8]: 15.3 months
HR (OS) [8]: 0.64
HR (TTF) [8]: 0.71
12 months OS (%) [9]: 64.7%
Median TTF (months) [9]: 2.9 months
Median survival (months) [9]: 15.3 months
HR (OS) [9]: 0.63
HR (TTF) [9]: 0.90
12 months OS (%) [10]: 88.8%
Median TTF (months) [10]: 5.6 months
Median survival (months) [10]: 24.7 months
HR (OS) [10]: 0.50
HR (TTF) [10]: 0.87
12 months OS (%) [11]: 66.6%
Median TTF (months) [11]: 4.2 months
Median survival (months) [11]: 13.3 months
HR (OS) [11]: 0.89
HR (TTF) [11]: 0.98
12 months OS (%) [12]: 73.7%
Median TTF (months) [12]: 4.2 months
Median survival (months) [12]: 16.2 months
HR (OS) [12]: 0.53
HR (TTF) [12]: 0.89
12 months OS (%) [13]: 78.6%
Median TTF (months) [13]: 2.9 months
Median survival (months) [13]: 24.7 months
HR (TTF) [13]: 0.82
12 months OS (%) [14]: 71.4%
Median TTF (months) [14]: 2.9 months
Median survival (months) [14]: 14.1 months
HR (OS) [14]: 0.89
HR (TTF) [14]: 0.81
12 months OS (%) [15]: 82.3%
Median TTF (months) [15]: 5.6 months
Median survival (months) [15]: 20.7 months
HR (TTF) [15]: 0.43
12 months OS (%) [16]: 66.6%
Median TTF (months) [16]: 2.4 months
Median survival (months) [16]: 15.3 months
HR (OS) [16]: 0.90
HR (TTF) [16]: 1.86
12 months OS (%) [17]: 72.7%
Median TTF (months) [17]: 2.8 months
Median survival (months) [17]: 15.3 months
HR (OS) [17]: 0.96
HR (TTF) [17]: 1.33
Median TTF (months) [18]: 3.6 months
HR (TTF) [18]: 0.58
12 months OS (%) [19]: 73.3%
Median survival (months) [19]: 24.7 months
Effect on OS (in words) (never/light-smokers (≤25 years, stopped or not), Table 7 population): significantly prolonged OS
